Test results published in ChEMBL document CHEMBL4725353, “Discovery of Pyrido[2,3-b]indole Derivatives with Gram-Negative Activity Targeting Both DNA Gyrase and Topoisomerase IV” (J Med Chem, 2020).
≈ marks a conversion by molar mass, not a printed value. Calls of active or inactive are those of the source. The calls are words filed in the database; no cut-off is given here.

Legend:
Klebsiella pneumoniae [1] = test: Antibacterial activity against Klebsiella pneumoniae ATCC 700603 assessed as reduction in microbial growth preincubated for 20 to 24 hrs followed by subculture in absence of compound and measured on day 4 CLSI based broth microdilution susceptibility method; assay type: functional; details: time hrs 20-24
Escherichia coli [2] = test: Antibacterial activity against Escherichia coli ATCC BAA-2340 assessed as reduction in microbial growth preincubated for 20 to 24 hrs followed by subculture in absence of compound and measured on day 4 CLSI based broth microdilution susceptibility method; assay type: functional; details: time hrs 20-24
Acinetobacter baumannii [3] = test: Antibacterial activity against Acinetobacter baumannii ATCC 51432 assessed as reduction in microbial growth preincubated for 20 to 24 hrs followed by subculture in absence of compound and measured on day 4 CLSI based broth microdilution susceptibility method; assay type: functional; details: time hrs 20-24
Escherichia coli [4] = test: microbe, parasite or virus in culture; details: ATCC 25922
Description: Antibacterial activity against Escherichia coli ATCC 25922 assessed as reduction in microbial growth preincubated for 20 to 24 hrs followed by subculture in absence of compound and measured on day 4 CLSI based broth microdilution susceptibility method

Escherichia coli [5] = test: Antibacterial activity against Escherichia coli ATCC 35218 assessed as reduction in microbial growth preincubated for 20 to 24 hrs followed by subculture in absence of compound and measured on day 4 CLSI based broth microdilution susceptibility method; assay type: functional; details: time hrs 20-24
[6] = Distribution coefficient between octanol and buffer, log D of the compound in pH 7.4 buffer by CAMDIS assay; assay type: physicochemical
in vitro = details: mouse, liver microsomes
Description: Intrinsic clearance in mouse liver microsomes preincubated for 10 mins followed by NADPH regenerating system addition and measured up to 30 mins by LC/MS-MS analysis

physchem [7] = details: PBS, pH 6.5
Description: Solubility of compound in PBS at pH 6.5 incubated for over night by HPLC-UV based lyophilization solubility assay

Acinetobacter baumannii [8] = test: Antibacterial activity against Acinetobacter baumannii ATCC 19606 assessed as reduction in microbial growth preincubated for 20 to 24 hrs followed by subculture in absence of compound and measured on day 4 CLSI based broth microdilution susceptibility method; assay type: functional; details: time hrs 20-24
Klebsiella pneumoniae [9] = test: Antibacterial activity against Klebsiella pneumoniae ATCC BAA-2146 assessed as reduction in microbial growth preincubated for 20 to 24 hrs followed by subculture in absence of compound and measured on day 4 CLSI based broth microdilution susceptibility method; assay type: functional; details: time hrs 20-24
Escherichia coli [10] = test: microbe, parasite or virus in culture; details: ATCC 29213
Description: Antibacterial activity against Escherichia coli ATCC 29213 assessed as reduction in microbial growth preincubated for 20 to 24 hrs followed by subculture in absence of compound and measured on day 4 CLSI based broth microdilution susceptibility method

Klebsiella pneumoniae [11] = test: Antibacterial activity against Klebsiella pneumoniae ATCC 10031 assessed as reduction in microbial growth preincubated for 20 to 24 hrs followed by subculture in absence of compound and measured on day 4 CLSI based broth microdilution susceptibility method; assay type: functional; details: time hrs 20-24
Acinetobacter baumannii [12] = test: Antibacterial activity against Acinetobacter baumannii ATCC BAA-747 assessed as reduction in microbial growth preincubated for 20 to 24 hrs followed by subculture in absence of compound and measured on day 4 CLSI based broth microdilution susceptibility method; assay type: functional; details: time hrs 20-24
Pseudomonas aeruginosa [13] = test: Antibacterial activity against Pseudomonas aeruginosa PAO1 assessed as reduction in microbial growth preincubated for 20 to 24 hrs followed by subculture in absence of compound and measured on day 4 CLSI based broth microdilution susceptibility method; assay type: functional; details: time hrs 20-24
Pseudomonas aeruginosa [14] = test: Antibacterial activity against Pseudomonas aeruginosa ATCC BAA-2113 assessed as reduction in microbial growth preincubated for 20 to 24 hrs followed by subculture in absence of compound and measured on day 4 CLSI based broth microdilution susceptibility method; assay type: functional; details: time hrs 20-24
Pseudomonas aeruginosa [15] = test: Antibacterial activity against Pseudomonas aeruginosa ATCC 27853 assessed as reduction in microbial growth preincubated for 20 to 24 hrs followed by subculture in absence of compound and measured on day 4 CLSI based broth microdilution susceptibility method; assay type: functional; details: time hrs 20-24
[16] = Protein binding in plasma (unknown origin) assessed as unbound fraction at 1 uM after 5 hrs by LC/MS-MS analysis; assay type: ADME, cell-free
[17] = Intrinsic clearance in mouse hepatocytes by LC/MS-MS analysis; assay type: ADME, cell-based, Hepatocyte
physchem [18] = test: physchem
Description: Ionization constant (acid), pKa of the compound by photometric titration assay

[19] = Plasma protein binding in iv dosed CD-1 mouse measured up to 24 hrs by LC-MS/MS analysis; assay type: ADME, organism-based; details: read-out: PPB (converted)
[20] = AUC/dose in iv dosed CD-1 mouse measured up to 24 hrs by LC-MS/MS analysis; assay type: ADME, organism-based; details: in vivo
[21] = Clearance in iv dosed CD-1 mouse measured up to 24 hrs by LC-MS/MS analysis; assay type: ADME, organism-based; details: in vivo
[22] = Volume of distribution at steady state in iv dosed CD-1 mouse measured up to 24 hrs by LC-MS/MS analysis; assay type: ADME, organism-based; details: in vivo, read-out: Vdss
[23] = Half life in iv dosed CD-1 mouse measured up to 24 hrs by LC-MS/MS analysis; assay type: ADME, organism-based; details: in vivo
[24] = Cmax/dose in iv dosed CD-1 mouse measured up to 24 hrs by LC-MS/MS analysis; assay type: ADME, organism-based; details: in vivo
[25] = Dissociation constant, pKa of compound by photometric titration assay; assay type: physicochemical
[26] = fAUC in Escherichia coli ATCC 25922 infected ICR mouse model of neutropenic thigh infection; assay type: ADME; details: 45 mg/kg, 12 h
Escherichia coli [27] = test: Antibacterial activity against Escherichia coli ATCC 25922 infected in ICR mouse model of neutropenic thigh infection assessed as reduction in microbial growth at 40 to 45 mg/kg, iv bid for 12 hrs; assay type: functional, organism-based
Escherichia coli [28] = test: Antibacterial activity against Escherichia coli ATCC 25922 infected in ICR mouse model of neutropenic thigh infection assessed as reduction in colony forming unit at 45 mg/kg, iv bid for 12 hrs; assay type: functional, organism-based
[29] = Ratio of fAUC in Escherichia coli ATCC 25922 infected ICR mouse model of neutropenic thigh infection to MIC for Escherichia coli ATCC […]; assay type: ADME; details: 45 mg/kg, 12 h
Escherichia coli [30] = test: Antibacterial activity against Escherichia coli ATCC 25922 infected in ICR mouse model of neutropenic thigh infection assessed as reduction in microbial growth at 10 to 25 mg/kg, iv and measured after 12 hrs; assay type: functional, organism-based; details: dose mg/kg 10-25, time 12.0 hrs

MIC (Klebsiella pneumoniae [1])	MIC (Escherichia coli [2])	MIC (Acinetobacter baumannii [3])	MIC (Escherichia coli [4])	MIC (Escherichia coli [5])	logD [6]	CLint scaled at 0.5 h (in vitro)	solubility (physchem [7])	MIC (Acinetobacter baumannii [8])	MIC (Klebsiella pneumoniae [9])	MIC (Escherichia coli [10])	MIC (Klebsiella pneumoniae [11])	MIC (Acinetobacter baumannii [12])	MIC (Pseudomonas aeruginosa [13])	MIC (Pseudomonas aeruginosa [14])	MIC (Pseudomonas aeruginosa [15])	fraction unbound at 5 h, 1 µM [16]	pKa (physchem [18])	Structure (SMILES)	other results
0.69 µg/mL	1.38 µg/mL	1.38 µg/mL	0.25 µg/mL (≈ 0.566 µM)	0.34 µg/mL	3.48	76.1 mL/min/kg	< 0.2 µg/mL	0.17 µg/mL	1.38 µg/mL	< 0.016 µg/mL	0.09 µg/mL	0.69 µg/mL	2 µg/mL	0.34 µg/mL	1.38 µg/mL			CCNc1cc(F)cc2c1[nH]c1ncc(-c3cncnc3)c(-n3ccc(C(F)(F)F)n3)c12	
1.47 µg/mL	1.47 µg/mL	> 23.5 µg/mL	0.5 µg/mL (≈ 1.06 µM)	1.47 µg/mL	3.56			73 µg/mL	> 23.5 µg/mL	< 0.016 µg/mL	0.183 µg/mL	> 23.5 µg/mL	4 µg/mL	1.47 µg/mL	> 23.5 µg/mL			CCNc1cc(F)cc2c1[nH]c1ncc(-c3cncc(CO)c3)c(-n3ccc(C(F)(F)F)n3)c12	
			2 µg/mL (≈ 4.56 µM)			70.3 mL/min/kg	34 µg/mL (≈ 77.5 µM)									0.044	7.62	CCNc1cc(F)cc2c1[nH]c1ncc(-c3cncc(C#N)c3)c(-n3ncc4c3CNC4)c12	CLH [17]: 74.6 µg/mL
4 µg/mL	2 µg/mL	1 µg/mL	< 0.25 µg/mL	1 µg/mL		47 mL/min/kg	90 µg/mL (≈ 182 µM)	1 µg/mL	8 µg/mL		< 0.03 µg/mL	0.5 µg/mL	2 µg/mL	2 µg/mL		0.012	8.08	CCNc1cc(F)cc2c1[nH]c1ncc(-c3cncc(C#N)c3)c(-n3cc(CN)c(C(F)(F)F)n3)c12	fraction unbound at 24 h [19]: 0.11; AUC/dose [20]: 324 kg·ng·h/mL/mg; clearance [21]: 50 mL/min/kg; Vd [22]: 5.8 L/kg; CLH [17]: 48.6 µg/mL; half-life [23]: 108 min; Cmax/dose [24]: 305 kg·ng/mL/mg
			1 µg/mL (≈ 2.13 µM)		2.94					< 0.25 µg/mL							8.62	CCNc1cc(F)cc2c1[nH]c1ncc(-c3cncc(CN)c3)c(-n3ccc(C(F)(F)F)n3)c12	
			> 8 µg/mL		2.02					0.25 µg/mL (≈ 0.502 µM)								CCNc1cc(F)cc2c1[nH]c1ncc(-c3cncc(CC(=O)O)c3)c(-n3ccc(C(F)(F)F)n3)c12	pKa [25]: 3.51
			> 16 µg/mL		1.9					1 µg/mL (≈ 2.06 µM)								CCNc1cc(F)cc2c1[nH]c1ncc(-c3cncc(C(=O)O)c3)c(-n3ccc(C(F)(F)F)n3)c12	pKa [25]: 3.57
0.75 µg/mL	0.75 µg/mL	1.5 µg/mL	0.25 µg/mL (≈ 0.52 µM)	0.75 µg/mL	3.54			0.38 µg/mL	1.5 µg/mL	0.31 µg/mL (≈ 0.645 µM)	0.38 µg/mL	0.75 µg/mL	2 µg/mL	0.75 µg/mL	1.5 µg/mL			CCNc1cc(F)cc2c1[nH]c1ncc(-c3cnc4ccnn4c3)c(-n3ccc(C(F)(F)F)n3)c12	
			1 µg/mL (≈ 1.97 µM)			73.2 mL/min/kg	< 0.3 µg/mL									0.012	6.57	CCNc1cc(F)cc2c1[nH]c1ncc(-c3cncc(C#N)c3)c(-n3nc(C(F)(F)F)c4c3CNC4)c12	
			> 11.4 µg/mL		1.93					0.444 µg/mL (≈ 0.85 µM)								CCNc1cc(F)cc2c1[nH]c1ncc(-c3cncc(Cc4nnn[nH]4)c3)c(-n3ccc(C(F)(F)F)n3)c12	pKa [25]: 4.78
6.26 µg/mL	12.5 µg/mL	0.78 µg/mL	0.31 µg/mL (≈ 0.619 µM)	3.13 µg/mL		< 20.2 mL/min/kg	15 µg/mL (≈ 30 µM)	0.78 µg/mL	12.5 µg/mL		< 0.02 µg/mL	0.39 µg/mL	1.3 µg/mL	1.56 µg/mL	1.56 µg/mL	0.027		CCNc1cc(F)cc2c1[nH]c1ncc(-c3cnc(OC)nc3)c(-n3cc(CN)c(C(F)(F)F)n3)c12	fraction unbound at 24 h [19]: 0.11; fAUC [26]: 30 µg·h/mL; Activity (Escherichia coli [27]): Active; Activity (Escherichia coli [28]): Active; AUC/dose [20]: 341 kg·ng·h/mL/mg; clearance [21]: 48 mL/min/kg; Vd [22]: 3.6 L/kg; fAUC/MIC [29]: >= 6; CLH [17]: 45.3 µg/mL; half-life [23]: 96 min; Activity (Escherichia coli [30]): Active; Cmax/dose [24]: 494 kg·ng/mL/mg
22.2 µg/mL	2.78 µg/mL	5.56 µg/mL	0.81 µg/mL (≈ 1.82 µM)	5.56 µg/mL		21.8 mL/min/kg	350 µg/mL (≈ 787 µM)	5.56 µg/mL	22.2 µg/mL		0.09 µg/mL	2.78 µg/mL	10 µg/mL	11.1 µg/mL	11.1 µg/mL	0.11		CCNc1cc(F)cc2c1[nH]c1ncc(-c3cnc(OC)nc3)c(-n3ncc4c3CNC4)c12	fraction unbound at 24 h [19]: 0.11; AUC/dose [20]: 327 kg·ng·h/mL/mg; clearance [21]: 51 mL/min/kg; Vd [22]: 1.6 L/kg; CLH [17]: 53.9 µg/mL; half-life [23]: 48 min; Cmax/dose [24]: 792 kg·ng/mL/mg
1.42 µg/mL	2.85 µg/mL	5.7 µg/mL	0.25 µg/mL (≈ 0.549 µM)	2.85 µg/mL	3.44			1.42 µg/mL	5.7 µg/mL	< 0.016 µg/mL	0.178 µg/mL	2.85 µg/mL	2 µg/mL	1.42 µg/mL	2.85 µg/mL		4.84	CCNc1cc(F)cc2c1[nH]c1ncc(-c3cncc(N)c3)c(-n3ccc(C(F)(F)F)n3)c12	
1.45 µg/mL	2.91 µg/mL	> 23.3 µg/mL	0.5 µg/mL (≈ 1.07 µM)	1.45 µg/mL	3.63	61.8 mL/min/kg	< 0.3 µg/mL	0.73 µg/mL	5.82 µg/mL	< 0.016 µg/mL	0.73 µg/mL	1.45 µg/mL	2 µg/mL	1.45 µg/mL	5.82 µg/mL			CCNc1cc(F)cc2c1[nH]c1ncc(-c3cncc(C#N)c3)c(-n3ccc(C(F)(F)F)n3)c12	
			1 µg/mL (≈ 1.95 µM)			77.4 mL/min/kg	4 µg/mL (≈ 7.81 µM)									0.016		CCNc1cc(F)cc2c1[nH]c1ncc(-c3cnc(OC)nc3)c(-n3nc(C(F)(F)F)c4c3CNC4)c12	
0.76 µg/mL	0.76 µg/mL	3.02 µg/mL	0.5 µg/mL (≈ 1.03 µM)	0.76 µg/mL	3.25			0.76 µg/mL	3.02 µg/mL	< 0.016 µg/mL	0.09 µg/mL	3.02 µg/mL	2 µg/mL	0.76 µg/mL	0.76 µg/mL			CCNc1cc(F)cc2c1[nH]c1ncc(-c3cncc(C(N)=O)c3)c(-n3ccc(C(F)(F)F)n3)c12	
